Measurements published in publication PMC10066365, “Nemacol is a small molecule inhibitor of C. elegans vesicular acetylcholine transporter with anthelmintic potential” (Nature Communications, 2023).
Where “and” joins values, the source holds several entries; their conditions need not be identical. Identical values can stand only once. Like-named read-outs stand apart in the source and are kept apart here.

Key:
[1] = system: Dirofilaria immitis L3/L4; assay: Dirofilaria immitis L3/L4 motility assay (DiroImager, 72 h); conditions: Dirofilaria immitis L4
[2] = system: Dirofilaria immitis microfilariae; assay: Dirofilaria immitis microfilariae immobility assay (DiroImager, 72 h); conditions: for % effect (motility), DIROIM MF: Dirofilaria immitis microfilariae
Description: We conducted experiments with the Missouri isolate of Dirofilaria immitis in two labs. In the first set of experiments, shown as part of Fig. 3c, D. immitis microfilariae and larval stage 3 (L3) worms were assayed in the laboratories of Bayer Animal Health GmbH (Monheim, Germany). For microfilariae immobility assays, approximately 250 freshly purified microfilariae were cultured in single wells of a 96-well microtiter plate containing supplemented RPMI 1640 medium[68],[69]. […] Microfilariae exposed to medium substituted with 1% DMSO were used as negative controls. Motility of microfilariae was evaluated after 72 h of drug exposure using an image-based approach—DiroImager, developed by Bayer Technology Services. As described in detail in refs. [68],[69], the DiroImager is an automated high-throughput platform that allows for high-resolution optical imaging of an entire 96-well microtiter plate.

Pristionchus pacificus = Pristionchus pacificus motor disruption dose-response on solid media, 1 h; conditions: for mean % any phene (coiled, jerky-Unc or paralyzed): Pristionchus pacificus young adults, mean of three biological replicates; for EC50: Pristionchus pacificus, 1 h, read-out: P. pacificus motor disruption EC50; for rep 1 atypical locomotion / rep 1 coiled / rep 1 no phene / rep 1 paralyzed / rep 2 atypical locomotion / rep 2 coiled / rep 2 no phene / rep 2 paralyzed: count of 20 animals per trial, one hour
C. elegans = C. elegans motor phenotype scoring on solid media (Punc/jerky-unc, coiled, paralyzed), wild-type young adults; assay type: in vivo, Caenorhabditis elegans; conditions: for any phene, mean % fraction of young adults exhibiting any phenotype (coiled, jerky-Unc or paralyzed) / atypical locomotion (number of animals) / coiled (number of animals) / no phene (number of animals) / paralyzed (number of animals) / any phene (mean % fraction of young adults exhibiting any phenotype: coiled, jerky-Unc or paralyzed): one hour; for any phene, mean % fraction of young adults exhibiting any phenotype (coiled, jerky-Unc or paralyzed) / any phene (mean % fraction of young adults exhibiting any phenotype: coiled, jerky-Unc or paralyzed): mean of three biological replicates; for atypical locomotion (number of animals) / coiled (number of animals) / no phene (number of animals) / paralyzed (number of animals): young adults, 20 animals per trial, single replicate counts; for EC50: Caenorhabditis elegans, read-out: C. elegans - motor disruption EC50
[3] = conc 3.75, observed at one hour
[4] = any motor phenotype after 1 h on solid media, ± 95% CI
[5] = 3.75uM, third c14 line of each analog
[6] = 15uM, second c14 line of each analog
[7] = 60uM, first c14 line of each analog

SMILES: O=C(C1CCCC1)N1CCN(c2ccc([N+](=O)[O-])cc2)CC1 [Nemacol-17]
- % effect (motility), DIROIM L4 ([1]; 2 µM): 0%
- % effect (motility), DIROIM L4 ([1]; 10 µM): 0%
- % effect (motility), DIROIM L4 ([1]; 50 µM): 15%
- % effect (motility), DIROIM MF ([2]; 0.016 µM): 0%
- % effect (motility), DIROIM MF ([2]; 0.08 µM): 0%
- % effect (motility), DIROIM MF ([2]; 0.4 µM): 0%
- % effect (motility), DIROIM MF ([2]; 2 µM): 0%
- % effect (motility), DIROIM MF ([2]; 10 µM): 0%
- mean % any phene (coiled, jerky-Unc or paralyzed) (Pristionchus pacificus; [3]): 2.5%
- mean % any phene (coiled, jerky-Unc or paralyzed) (Pristionchus pacificus; conc 15, observed at one hour): 3.333%
- mean % any phene (coiled, jerky-Unc or paralyzed) (Pristionchus pacificus; conc 60, observed at one hour): 26.6667%
- EC50 (Pristionchus pacificus): > 60 µM
- any phene, mean % fraction of young adults exhibiting any phenotype (coiled, jerky-Unc or paralyzed) (C. elegans; 3.75uM): 0%
- atypical locomotion (number of animals) (C. elegans; 3.75uM): 0
- coiled (number of animals) (C. elegans; 3.75uM): 0
- no phene (number of animals) (C. elegans; 3.75uM): 20
- paralyzed (number of animals) (C. elegans; 3.75uM): 0
- any phene, mean % fraction of young adults exhibiting any phenotype (coiled, jerky-Unc or paralyzed) (C. elegans; 15uM): 0%
- atypical locomotion (number of animals) (C. elegans; 15uM): 0
- coiled (number of animals) (C. elegans; 15uM): 0
- no phene (number of animals) (C. elegans; 15uM): 20
- paralyzed (number of animals) (C. elegans; 15uM): 0
- any phene, mean % fraction of young adults exhibiting any phenotype (coiled, jerky-Unc or paralyzed) (C. elegans; 60uM): 9.167%
- atypical locomotion (number of animals) (C. elegans; 60uM): 0 and 2 and 3 and 6
- coiled (number of animals) (C. elegans; 60uM): 0
- no phene (number of animals) (C. elegans; 60uM): 20 and 18 and 17 and 14
- paralyzed (number of animals) (C. elegans; 60uM): 0
- EC50 (C. elegans; [4]): > 60 µM

SMILES: CC1CCC(N2CCN(c3ccc(Cl)cc3)CC2)C1 (stereo not shown) [Nemacol-44]
- % effect (motility), DIROIM L4 ([1]; 2 µM): 0%
- % effect (motility), DIROIM L4 ([1]; 10 µM): 0%
- % effect (motility), DIROIM L4 ([1]; 50 µM): 10%
- % effect (motility), DIROIM MF ([2]; 0.016 µM): 0%
- % effect (motility), DIROIM MF ([2]; 0.08 µM): 0%
- % effect (motility), DIROIM MF ([2]; 0.4 µM): 0%
- % effect (motility), DIROIM MF ([2]; 2 µM): 0%
- % effect (motility), DIROIM MF ([2]; 10 µM): 0%
- mean % any phene (coiled, jerky-Unc or paralyzed) (Pristionchus pacificus; [3]): 63.3333%
- mean % any phene (coiled, jerky-Unc or paralyzed) (Pristionchus pacificus; conc 15, observed at one hour): 90.7456%
- mean % any phene (coiled, jerky-Unc or paralyzed) (Pristionchus pacificus; conc 60, observed at one hour): 100%
- EC50 (Pristionchus pacificus): 2.5 ± 1 µM
- rep 1 atypical locomotion (Pristionchus pacificus; conc 3.75): 3
- rep 1 coiled (Pristionchus pacificus; conc 3.75): 0
- rep 1 no phene (Pristionchus pacificus; conc 3.75): 17
- rep 1 paralyzed (Pristionchus pacificus; conc 3.75): 0
- rep 2 atypical locomotion (Pristionchus pacificus; conc 3.75): 10
- rep 2 coiled (Pristionchus pacificus; conc 3.75): 8
- rep 2 no phene (Pristionchus pacificus; conc 3.75): 2
- rep 2 paralyzed (Pristionchus pacificus; conc 3.75): 0
- rep 1 atypical locomotion (Pristionchus pacificus; conc 15): 13
- rep 1 coiled (Pristionchus pacificus; conc 15): 7
- rep 1 no phene (Pristionchus pacificus; conc 15): 0
- rep 1 paralyzed (Pristionchus pacificus; conc 15): 0
- rep 2 atypical locomotion (Pristionchus pacificus; conc 15): 0
- rep 2 coiled (Pristionchus pacificus; conc 15): 14
- rep 2 no phene (Pristionchus pacificus; conc 15): 0
- rep 2 paralyzed (Pristionchus pacificus; conc 15): 6
- rep 1 atypical locomotion (Pristionchus pacificus; conc 60): 2
- rep 1 coiled (Pristionchus pacificus; conc 60): 5
- rep 1 no phene (Pristionchus pacificus; conc 60): 0
- rep 1 paralyzed (Pristionchus pacificus; conc 60): 13
- rep 2 atypical locomotion (Pristionchus pacificus; conc 60): 1
- rep 2 coiled (Pristionchus pacificus; conc 60): 7
- rep 2 no phene (Pristionchus pacificus; conc 60): 0
- rep 2 paralyzed (Pristionchus pacificus; conc 60): 12
- any phene (mean % fraction of young adults exhibiting any phenotype: coiled, jerky-Unc or paralyzed) (C. elegans; [5]): 80%
- any phene (mean % fraction of young adults exhibiting any phenotype: coiled, jerky-Unc or paralyzed) (C. elegans; [6]): 100%
- any phene (mean % fraction of young adults exhibiting any phenotype: coiled, jerky-Unc or paralyzed) (C. elegans; [7]): 100%
- EC50 (C. elegans; [4]): 3.4 µM

SMILES: Cc1cccc(CN2CCN(c3ccc([N+](=O)[O-])cc3)CC2)c1 [Nemacol-40]
- % effect (motility), DIROIM L4 ([1]; 2 µM): 0%
- % effect (motility), DIROIM L4 ([1]; 10 µM): 10%
- % effect (motility), DIROIM L4 ([1]; 50 µM): 100%
- % effect (motility), DIROIM MF ([2]; 0.016 µM): 0%
- % effect (motility), DIROIM MF ([2]; 0.08 µM): 0%
- % effect (motility), DIROIM MF ([2]; 0.4 µM): 0%
- % effect (motility), DIROIM MF ([2]; 2 µM): 0%
- % effect (motility), DIROIM MF ([2]; 10 µM): 40%
- EC50 ([2]; Dirofilaria immitis, 72 h, read-out: Dirofilaria immitis filariae EC50): 10.7 µM
- mean % any phene (coiled, jerky-Unc or paralyzed) (Pristionchus pacificus; [3]): 5%
- mean % any phene (coiled, jerky-Unc or paralyzed) (Pristionchus pacificus; conc 15, observed at one hour): 4.167%
- mean % any phene (coiled, jerky-Unc or paralyzed) (Pristionchus pacificus; conc 60, observed at one hour): 11.9444%
- EC50 (Pristionchus pacificus): > 60 µM
- any phene (mean % fraction of young adults exhibiting any phenotype: coiled, jerky-Unc or paralyzed) (C. elegans; [5]): 5%
- any phene (mean % fraction of young adults exhibiting any phenotype: coiled, jerky-Unc or paralyzed) (C. elegans; [6]): 14.1667%
- any phene (mean % fraction of young adults exhibiting any phenotype: coiled, jerky-Unc or paralyzed) (C. elegans; [7]): 37.5%
- EC50 (C. elegans; 1 h): > 60 µM
